Values quoted from earlier work, collected in patent US12070503B2, “Transdermal carrier” (priority 2014, dated 2024).
Values belong to the compound of their own block, whether it stands above or below them.

Key:
HSV-infected cells = conditions: compared with alternatives such as Abreva
[1] = difficult to measure, considered generally
hair follicles = conditions: concentrations of 2% and 5%; published studies

SMILES: Nc1nc2c(ncn2CCC(CO)CO)c(=O)[nH]1 [Penciclovir, penciclovir]
effectiveness against HSV-infected cells (HSV-infected cells): more effective

half-life [1]: less than 30 minutes
SMILES: C[C@H](CCC(=O)O)[C@H]1CC[C@H]2[C@@H]3CC[C@@H]4C[C@H](O)CC[C@]4(C)[C@H]3C[C@H](O)[C@]12C [DCA, deoxycholic acid]

SMILES: Nc1cc(N2CCCCC2)nc(N)[n+]1[O-] [minoxidil]
treatment time before evidence of hair growth was demonstrated (hair follicles): > 8 months
